Data from patent publication US20210308077A1, “COMBINATIONS INCLUDING BETA-ADRENORECEPTOR AGONISTS FOR TREATMENT OF PARKINSON`S DISEASE AND MOVEMENT DISORDERS” (The Brigham and Women`s Hospital, Inc., priority 2017, published 2021).

What was measured:
MPTP mouse model = assay: controlled trial in the MPTP mouse model; format: in vivo; conditions: MPTP 20 mg/kg i.p. five days; clenbuterol 10 mg/kg i.p. once then oral gavage daily for two weeks
Procedure: Male C57bl/6 mice (8-10 weeks old) were analyzed. N-methyl-4-phenyl-1,2,3,6-tetrahydropyridine (MPTP-HCl; 20 mg/kg, measured as free base; Sigma, St. Louis, Mo.) was administered to mice intraperitoneally once per day for five consecutive days similar to described previously (26,36). Eight MPTP-treated mice assigned to the clenbuterol treatment group received one 10 mg/kg i.p. injection of clenbuterol (two days prior to MPTP treatment start) and then clenbuterol via oral gavage (10 mg/kg) daily for two weeks (starting on the day of the first MPTP treatment). Another eight MPTP-treated mice assigned to the vehicle treatment group received only oral drinking water (without clenbuterol). […]
After overnight postfixation in 4% paraformaldehyde, brains were cryoprotected in 30% sucrose before cryosectioning into […] (used for stereology) free-floating sections, obtained as described previously (36). […] TH+ cells were analyzed by sterological estimates as described previously (36). Briefly, the total number of TH+neurons in the SNc was calculated by optical fractionation using Stereo Investigator (version 6; MicroBrightField, Williston, Vt.). […] Total number of TH+ neurons was determined using the optical fractionator. Adjacent tissue was also stained using cresyl violet (Sigma, 0.01% for 5 min) to confirm cell loss as assessed by TH analysis.

[1] = system: α-synuclein protein and SNCA mRNA; assay: SNCA expression in SNCA-triplication iPSC-derived neuronal progenitor cells; format: cell-based, human; conditions: SNCA-triplication NPCs, 20 μM
Procedure: The derivation and culture of the WIBR-IPS-αSyn^TRPLline has been described previously (27).
To initiate differentiation, iPSC colonies were pretreated for 30-60 min with 5 μM Y-27632, a ROCK inhibitor (Calbiochem). They were single cell-dissociated after 5-10 minute exposure to accutase (StemProAccutase; Life Technologies) and then re-suspended in neural base (NB) medium, which is DMEM/F12 (Gibco/Life Technologies) supplemented with 0.5% N2 and 1% B27 (Life Technologies). […]
Total RNA from flash-frozen mice brain tissue, rodent primary cells, human neuroblastoma cells and iPSC-derived neuronal cells was isolated using TRIzol® (Life Technologies) following the manufacturer's protocol. RNA concentration was measured using NanoDrop spectrophotometer (Thermo Fisher Scientific, Wilmington, De.). […] Quantitative PCR was performed using TaqMan Universal PCR Master Mix (Applied Biosystems) on an ABI 7900HT instrument (Applied Biosystems) as described previously (31). […] Expression values were analyzed using the comparative threshold cycle method (31). […]

Compound: CC(C)(C)NCC(O)c1cc(Cl)c(N)c(Cl)c1 (stereo not shown) [clenbuterol]
- TH+ neurons in the SNpc (MPTP mouse model): abrogated the MPTP-induced loss of TH+ neurons
- cresyl-violet (CV) stained cells in the SNpc (MPTP mouse model): blocked the loss of cresyl-violet (CV) stained cells
- SNCA mRNA expression ([1]; 3 days, P<0.005): significantly reduced
- endogenous α-synuclein protein ([1]; 4 days, P<0.05): significantly reduced
